Values of other authors, collected in US20090062246A1, “THERAPEUTIC TREATMENT-014” (ASTRAZENECA AB, priority 2007, published 2009).

Target: T1, ETB receptor (Homo sapiens, UniProt P24530)
T1 sequence (P24530 27-442): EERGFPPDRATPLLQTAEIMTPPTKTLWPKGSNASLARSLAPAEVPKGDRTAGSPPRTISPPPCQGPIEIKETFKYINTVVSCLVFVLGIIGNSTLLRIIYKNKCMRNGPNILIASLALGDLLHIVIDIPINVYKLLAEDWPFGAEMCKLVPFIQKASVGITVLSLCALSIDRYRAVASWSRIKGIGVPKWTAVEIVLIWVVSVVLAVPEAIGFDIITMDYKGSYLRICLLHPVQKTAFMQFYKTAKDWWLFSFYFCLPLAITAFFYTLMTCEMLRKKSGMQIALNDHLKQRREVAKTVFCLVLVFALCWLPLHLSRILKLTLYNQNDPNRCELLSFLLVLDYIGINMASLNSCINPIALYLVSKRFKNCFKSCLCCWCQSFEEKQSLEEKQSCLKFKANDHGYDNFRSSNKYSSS
Settings: described in WO04/018044

COc1nc(C)cnc1NS(=O)(=O)c1cccnc1-c1ccc(-c2nnco2)cc1 [Compound (I), N-(3-methoxy-5-methylpyrazin-2-yl)-2-(4-[1,3,4-oxadiazol-2-yl]phenyl)pyridine-3-sulphonamide]
affinity for the ETB receptor: no measurable affinity
